From US10294202B2, “Pyrrolidinones as herbicides” (FMC Corporation, priority 2013, dated 2019)
Where two headings read alike, the source gives them in different places.

Key:
crabgrass, large = experiment: Test A pre-/postemergence herbicide test; type: in vivo, Digitaria sanguinalis; details: for Crabgrass, Large plant response rating: Preemergence, visual rating on 0 to 100 scale (0 no effect, 100 complete control)
In short: (§1)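 Planted in loam–sand blend; treated the same day preemergence by directed soil spray, while separately grown plants at one- to two-leaf stage got postemergence spray. Compared visually with untreated controls after approximately 10 days; 100 means complete control.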

chickweed = experiment: Test C postemergence herbicide test; type: in vivo, Stellaria media
In short: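 Response is scored visually on a 0–100 scale (100 = complete control) relative to untreated controls, 13 to 15 days after treatment. Plants were sprayed postemergence at the 1- to 4-leaf stage (2 to 18 cm tall) and kept in a greenhouse.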

velvetleaf = experiment: Test A pre-/postemergence herbicide test; type: in vivo, Abutilon theophrasti; details: for Velvetleaf plant response rating: Preemergence, visual rating on 0 to 100 scale (0 no effect, 100 complete control)
In short: as §1

barnyardgrass = experiment: Test C flooded paddy test; type: in vivo, Echinochloa crus-galli; details: Flood
In short: (§2)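 Ratings reflect visual comparison with controls on a 0–100 scale, where 100 is complete control. Compound is dosed into standing paddy water 3 cm deep over 2-leaf-stage plants, kept in the greenhouse 13 to 15 days.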

morningglory = experiment: Test A pre-/postemergence herbicide test; type: in vivo, Ipomoea spp.; details: for Morningglory plant response rating: Preemergence, visual rating on 0 to 100 scale (0 no effect, 100 complete control)
In short: as §1

rice = experiment: Test C flooded paddy test; type: in vivo, Oryza sativa; details: Flood
In short: as §2

sedge, umbrella = experiment: Test C flooded paddy test; type: in vivo, Cyperus difformis; details: Flood
In short: as §2

ragweed = experiment: Test A pre-/postemergence herbicide test; type: in vivo, Ambrosia elatior
In short: as §1

ryegrass, Italian = experiment: Test A pre-/postemergence herbicide test; type: in vivo, Lolium multiflorum
In short: as §1

galium = experiment: Test A postemergence herbicide test; type: in vivo, Galium aparine
In short: (§3)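 Ratings compare treated with untreated plants roughly 10 days after a postemergence application made at the one- to two-leaf stage. Scoring uses 0–100, where 0 means no effect and 100 complete control.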

kochia = experiment: Test A pre-/postemergence herbicide test; type: in vivo, Kochia scoparia
In short: as §1

blackgrass = experiment: Test A postemergence herbicide test; type: in vivo, Alopecurus myosuroides
In short: as §3

[1] = Postemergence, 125 g ai/ha, 0 to 100 scale, 0 no effect, 100 complete control
[2] = Postemergence, 500 g ai/ha, 0 to 100 scale (0 no effect, 100 complete control)
[3] = preemergence, 500 g ai/ha, 0 to 100 scale
[4] = 31 g ai/ha, scale 0 (no effect) to 100 (complete control)
[5] = 62 g ai/ha, scale 0 to 100 (0 no effect, 100 complete control)
[6] = 125 g ai/ha, scale 0 to 100 (0 no effect, 100 complete control)
[7] = 250 g ai/ha, scale 0 to 100 (0 no effect, 100 complete control)
[8] = 125 g ai/ha, scale of 0 to 100 where 0 is no effect and 100 is complete control, 13 to 15 days
[9] = Preemergence, 125 g ai/ha, visual rating on 0 to 100 scale (0 no effect, 100 complete control)
[10] = 125 g ai/ha, 0 to 100 scale, 0 no effect, 100 complete control
[11] = 500 g ai/ha, 0 to 100 scale (0 no effect, 100 complete control)
[12] = 31 g ai/ha, scale 0 to 100 (0 no effect, 100 complete control)
[13] = 62 g ai/ha, scale 0 (no effect) to 100 (complete control)
[14] = 125 g ai/ha, visual rating, 0 to 100 scale, 0 no effect, 100 complete control, approximately 10 days, preemergence
[15] = Postemergence, 125 g ai/ha, 0 to 100 scale, 0 is no effect, 100 is complete control
[16] = preemergence, 500 g ai/ha, 0 to 100 scale, 0 is no effect and 100 is complete control
[17] = 125 g ai/ha, 0 to 100 scale, 0 is no effect, 100 is complete control
[18] = Postemergence, 125 g ai/ha, visual rating on 0 to 100 scale (0 no effect, 100 complete control), approx. 10 days
[19] = Preemergence, 125 g ai/ha, 0 to 100 scale where 0 is no effect and 100 is complete control
[20] = Preemergence, 500 g ai/ha, visual rating on 0 to 100 scale (0 no effect, 100 complete control)
[21] = 125 g ai/ha, visual rating on 0 to 100 scale (0 no effect, 100 complete control), approx. 10 days

Structure (SMILES): O=C1NCC(c2ccc(F)c(F)c2)C1C(=O)Nc1cccc(F)c1F (racemic) [Compound 101]
- Plant response rating, Crabgrass, Large (crabgrass, large; [1]): 80
- Plant response rating, Crabgrass, Large (crabgrass, large; [2]): 80
- Crabgrass, Large plant response rating (crabgrass, large; 125 g ai/ha): 90
- Plant response rating, Crabgrass, Large (crabgrass, large; [3]): 100
- Plant response rating, Chickweed (chickweed; [4]): 35
- Plant response rating, Chickweed (chickweed; [5]): 60
- Plant response rating, Chickweed (chickweed; [6]): 70
- Plant response rating, Chickweed (chickweed; [7]): 80
- Plant response rating, Velvetleaf (velvetleaf; [1]): 50
- Plant response rating, Velvetleaf (velvetleaf; [2]): 70
- Velvetleaf plant response rating (velvetleaf; 125 g ai/ha): 30
- Plant response rating, Velvetleaf (velvetleaf; [3]): 40
- Plant response rating, Barnyardgrass (barnyardgrass; [8]): 20
- Plant response rating, Barnyardgrass (barnyardgrass; 250 g ai/ha, scale 0 to 100): 55
- Plant response rating, Barnyardgrass (barnyardgrass; 500 g ai/ha, scale 0 to 100): 60
- Plant response rating, Barnyardgrass (barnyardgrass; 1000 g ai/ha, scale 0 to 100): 75
- Plant response rating, Morningglory (morningglory; [1]): 30
- Plant response rating, Morningglory (morningglory; [2]): 60
- Morningglory plant response rating (morningglory; 125 g ai/ha): 0
- Plant response rating, Morningglory (morningglory; [3]): 50
- Plant response rating, Rice (rice; [8]): 0
- Plant response rating, Rice (rice; 250 g ai/ha, scale 0 to 100): 0
- Plant response rating, Rice (rice; 500 g ai/ha, scale 0 to 100): 0
- Plant response rating, Rice (rice; 1000 g ai/ha, scale 0 to 100): 10
- Plant response rating, Sedge, Umbrella (sedge, umbrella; [8]): 0
- Plant response rating, Sedge, Umbrella (sedge, umbrella; 250 g ai/ha, scale 0 to 100): 0
- Plant response rating, Sedge, Umbrella (sedge, umbrella; 500 g ai/ha, scale 0 to 100): 0
- Plant response rating, Sedge, Umbrella (sedge, umbrella; 1000 g ai/ha, scale 0 to 100): 0

Structure (SMILES): Cc1ccccc1NC(=O)C1C(=O)NCC1c1cccc(C(F)(F)F)c1 (racemic) [Compound 109]
- Plant response rating, Chickweed (chickweed; [4]): 0
- Plant response rating, Chickweed (chickweed; [5]): 0
- Plant response rating, Chickweed (chickweed; [6]): 0
- Plant response rating, Chickweed (chickweed; [7]): 0
- Plant response rating, Ragweed (ragweed; [1]): 0
- Plant response rating, Ragweed (ragweed; [2]): 0
- Ragweed plant response rating (ragweed; [9]): 0
- Plant response rating, Ragweed (ragweed; [3]): 0
- Plant response rating, Ryegrass, Italian (ryegrass, Italian; [1]): 20
- Plant response rating, Ryegrass, Italian (ryegrass, Italian; [2]): 30
- Ryegrass, Italian plant response rating (ryegrass, Italian; [9]): 0
- Plant response rating, Ryegrass, Italian (ryegrass, Italian; [3]): 50
- Plant response rating, Galium (galium; [10]): 30
- Plant response rating, Galium (galium; [11]): 60
- Plant response rating, Kochia (kochia; [1]): 0
- Plant response rating, Kochia (kochia; [2]): 0
- Kochia plant response rating (kochia; [9]): 0
- Plant response rating, Kochia (kochia; [3]): 0
- Plant response rating, Blackgrass (blackgrass; [10]): 50
- Plant response rating, Blackgrass (blackgrass; [11]): 80

Structure (SMILES): O=C1NCC(c2ccc(C(F)(F)F)cc2)C1C(=O)Nc1cccc(F)c1F (racemic) [Compound 202]
- Plant response rating, Chickweed (chickweed; [12]): 80
- Plant response rating, Chickweed (chickweed; [13]): 80
- Plant response rating, Chickweed (chickweed; [6]): 85
- Plant response rating, Chickweed (chickweed; [7]): 85
- Plant response rating, Ragweed (ragweed; [14]): 50
- Plant response rating, Ragweed (ragweed; [15]): 30
- Ragweed plant response rating (0 to 100 scale, 0 is no effect, 100 is complete control) (ragweed; Postemergence, 500 g ai/ha): 50
- Plant response rating, Ragweed (ragweed; [16]): 90
- Plant response rating, Ryegrass, Italian (ryegrass, Italian; [14]): 60
- Plant response rating, Ryegrass, Italian (ryegrass, Italian; [15]): 30
- Ryegrass, Italian plant response rating (0 to 100 scale, 0 is no effect, 100 is complete control) (ryegrass, Italian; Postemergence, 500 g ai/ha): 40
- Plant response rating, Ryegrass, Italian (ryegrass, Italian; [16]): 60
- Plant response rating, Galium (galium; [17]): 60
- Galium plant response rating (0 to 100 scale, 0 is no effect, 100 is complete control) (galium; 500 g ai/ha): 60
- Plant response rating, Kochia (kochia; [14]): 70
- Plant response rating, Kochia (kochia; [15]): 80
- Kochia plant response rating (0 to 100 scale, 0 is no effect, 100 is complete control) (kochia; Postemergence, 500 g ai/ha): 90
- Plant response rating, Kochia (kochia; [16]): 80
- Plant response rating, Blackgrass (blackgrass; [17]): 50
- Blackgrass plant response rating (0 to 100 scale, 0 is no effect, 100 is complete control) (blackgrass; 500 g ai/ha): 50

Structure (SMILES): O=C1NCC(c2ccc(C(F)(F)F)cc2)C1C(=O)Nc1ccccc1F (stereo not drawn) [Compound 79, N-(2-fluorophenyl)-2-oxo-4-[4-(trifluoromethyl)phenyl]-3-pyrrolidinecarboxamide]
- pest or weed control at 125 g/ha (crabgrass, large; Digitaria sanguinalis, post-emergence, 240 h, Postemergence, 125 g ai/ha, 0 to 100 scale, 0 no effect, 100 complete control, read-out: Plant response rating, Crabgrass, Large): 80%
- pest or weed control at 500 g/ha (crabgrass, large; Digitaria sanguinalis, post-emergence, 240 h, Postemergence, 500 g ai/ha, 0 to 100 scale (0 no effect, 100 complete control), read-out: Plant response rating, Crabgrass, Large): 90%
- pest or weed control at 500 g/ha (crabgrass, large; Digitaria sanguinalis, pre-emergence, 240 h, preemergence, 500 g ai/ha, 0 to 100 scale, read-out: Plant response rating, Crabgrass, Large): 90%
- Crabgrass, Large plant response rating (crabgrass, large; 125 g ai/ha): 90
- Plant response rating, Chickweed (chickweed; [4]): 60
- Plant response rating, Chickweed (chickweed; [5]): 80
- Plant response rating, Chickweed (chickweed; [6]): 90
- Plant response rating, Chickweed (chickweed; [7]): 90
- pest or weed control at 125 g/ha (velvetleaf; Abutilon theophrasti, post-emergence, 240 h, Postemergence, 125 g ai/ha, 0 to 100 scale, 0 no effect, 100 complete control, read-out: Plant response rating, Velvetleaf): 10%
- pest or weed control at 500 g/ha (velvetleaf; Abutilon theophrasti, post-emergence, 240 h, Postemergence, 500 g ai/ha, 0 to 100 scale (0 no effect, 100 complete control), read-out: Plant response rating, Velvetleaf): 60%
- pest or weed control at 500 g/ha (velvetleaf; Abutilon theophrasti, pre-emergence, 240 h, preemergence, 500 g ai/ha, 0 to 100 scale, read-out: Plant response rating, Velvetleaf): 30%
- Velvetleaf plant response rating (velvetleaf; 125 g ai/ha): 0
- pest or weed control at 125 g/ha (morningglory; Ipomoea, post-emergence, 240 h, Postemergence, 125 g ai/ha, 0 to 100 scale, 0 no effect, 100 complete control, read-out: Plant response rating, Morningglory): 0%
- pest or weed control at 500 g/ha (morningglory; Ipomoea, post-emergence, 240 h, Postemergence, 500 g ai/ha, 0 to 100 scale (0 no effect, 100 complete control), read-out: Plant response rating, Morningglory): 10%
- pest or weed control at 500 g/ha (morningglory; Ipomoea, pre-emergence, 240 h, preemergence, 500 g ai/ha, 0 to 100 scale, read-out: Plant response rating, Morningglory): 0%
- Morningglory plant response rating (morningglory; 125 g ai/ha): 0

Structure (SMILES): O=C1NCC(c2cccc(Br)c2)C1C(=O)Nc1ccc(F)c(F)c1F (stereo not drawn) [Compound 310]
- Plant response rating, Chickweed (chickweed; [12]): 20
- Plant response rating, Chickweed (chickweed; [13]): 45
- Plant response rating, Chickweed (chickweed; [6]): 90
- Plant response rating, Chickweed (chickweed; [7]): 85
- Plant response rating, Ragweed (ragweed; [18]): 20
- Plant response rating, Ragweed (ragweed; [2]): 30
- Plant response rating, Ragweed (ragweed; [19]): 0
- Ragweed plant response rating (ragweed; [20]): 0
- Plant response rating, Ryegrass, Italian (ryegrass, Italian; [18]): 30
- Plant response rating, Ryegrass, Italian (ryegrass, Italian; [2]): 30
- Plant response rating, Ryegrass, Italian (ryegrass, Italian; [19]): 30
- Ryegrass, Italian plant response rating (ryegrass, Italian; [20]): 40
- Plant response rating, Galium (galium; [21]): 20
- Plant response rating, Galium (galium; [11]): 20
- Plant response rating, Kochia (kochia; [18]): 30
- Plant response rating, Kochia (kochia; [2]): 30
- Plant response rating, Kochia (kochia; [19]): 30
- Kochia plant response rating (kochia; [20]): 70
- Plant response rating, Blackgrass (blackgrass; [21]): 30
- Plant response rating, Blackgrass (blackgrass; [11]): 50

Structure (SMILES): O=C1NCC(c2cccc(C(F)(F)F)c2)C1C(=O)Nc1ccc(F)c(F)c1F (stereo not drawn) [Compound 345]
- Plant response rating, Chickweed (chickweed; [7]): 30
- Plant response rating, Ragweed (ragweed; [18]): 0
- Plant response rating, Ragweed (ragweed; [19]): 0
- Ragweed plant response rating (ragweed; [20]): 0
- Plant response rating, Ryegrass, Italian (ryegrass, Italian; [18]): 50
- Plant response rating, Ryegrass, Italian (ryegrass, Italian; [19]): 0
- Ryegrass, Italian plant response rating (ryegrass, Italian; [20]): 40
- Plant response rating, Galium (galium; [21]): 60
- Plant response rating, Kochia (kochia; [18]): 50
- Plant response rating, Kochia (kochia; [19]): 10
- Kochia plant response rating (kochia; [20]): 80
- Plant response rating, Blackgrass (blackgrass; [21]): 50
- Plant response rating, Blackgrass (blackgrass; [11]): 60
